From ChEMBL document CHEMBL4138123, “Design, synthesis and biological evaluation of novel pyrazolochalcones as potential modulators of PI3K/Akt/mTOR pathway and inducers of apoptosis in breast cancer cells” (Eur J Med Chem, 2017)

How the values were obtained:
Assay type in all cases: functional
SNB-19 [1] = experiment: Cytotoxicity against human SNB19 cells assessed as cell growth at 1 uM after 48 hrs by sulforhodamine B assay relative to control; details: SNB-19, 48 h, read-out: Activity
Malme-3M = experiment: Cytotoxicity against human MALME-3M cells assessed as cell growth at 0.1 uM after 48 hrs by sulforhodamine B assay relative to control; details: read-out: Activity
OVCAR-3 [2] = experiment: Cytotoxicity against human OVCAR3 cells assessed as cell growth at 1 uM after 48 hrs by sulforhodamine B assay relative to control; details: OVCAR-3, 48 h, read-out: Activity
OVCAR-3 [3] = experiment: Cytotoxicity against human OVCAR3 cells assessed as cell growth at 0.1 uM after 48 hrs by sulforhodamine B assay relative to control; details: OVCAR-3, 48 h, read-out: Activity
U-251 [4] = experiment: Cytotoxicity against human U251 cells assessed as cell growth at 1 uM after 48 hrs by sulforhodamine B assay relative to control; details: U-251, 48 h, read-out: Activity
SNB-19 [5] = experiment: Cytotoxicity against human SNB19 cells assessed as cell growth at 0.01 uM after 48 hrs by sulforhodamine B assay relative to control; details: SNB-19, 48 h, read-out: Activity
HCT-116 = experiment: Cytotoxicity against human HCT116 cells assessed as cell growth at 100 uM after 48 hrs by sulforhodamine B assay relative to control; details: HCT-116, 48 h, read-out: Activity
NCI-H522 = experiment: Cytotoxicity against human NCI-H522 cells assessed as cell growth at 0.01 uM after 48 hrs by sulforhodamine B assay relative to control; details: NCI-H522, 48 h, read-out: Activity
IGROV-1 = experiment: Cytotoxicity against human IGROV1 cells assessed as cell growth at 0.01 uM after 48 hrs by sulforhodamine B assay relative to control; details: IGROV-1, 48 h, read-out: Activity
ACHN = experiment: Cytotoxicity against human ACHN cells assessed as cell growth at 1 uM after 48 hrs by sulforhodamine B assay relative to control; details: read-out: Activity
PC-3 = experiment: Cytotoxicity against human PC3 cells assessed as growth inhibition after 48 hrs by sulforhodamine B assay; details: PC-3, 48 h
NCI-H23 = experiment: Cytotoxicity against human NCI-H23 cells assessed as growth inhibition after 48 hrs by sulforhodamine B assay; details: NCI-H23, 48 h; for CC50: read-out: LC50 (the source's name)
COLO 205 = experiment: Cytotoxicity against human COLO205 cells assessed as cell growth at 0.01 uM after 48 hrs by sulforhodamine B assay relative to control; details: COLO 205, 48 h, read-out: Activity
K562 = experiment: Cytotoxicity against human K562 cells assessed as cell growth at 0.01 uM after 48 hrs by sulforhodamine B assay relative to control; details: K562, 48 h, read-out: Activity
SR = experiment: Cytotoxicity against human SR cells assessed as cell growth at 100 uM after 48 hrs by sulforhodamine B assay relative to control; details: read-out: Activity
A549 [6] = experiment: Cytotoxicity against human A549/ATCC cells assessed as cell growth at 0.1 uM after 48 hrs by sulforhodamine B assay relative to control; details: A549, 48 h, read-out: Activity
UACC-62 = experiment: Cytotoxicity against human UACC62 cells assessed as growth inhibition after 48 hrs by sulforhodamine B assay; details: UACC-62, 48 h
NCI/ADR-RES = experiment: Cytotoxicity against human NCI/ADR-RES cells assessed as growth inhibition after 48 hrs by sulforhodamine B assay
HOP-62 = experiment: Cytotoxicity against human HOP62 cells assessed as cell growth at 10 uM after 48 hrs by sulforhodamine B assay relative to control; details: HOP-62, 48 h, read-out: Activity
OVCAR-4 = experiment: Cytotoxicity against human OVCAR4 cells assessed as cell growth at 10 uM after 48 hrs by sulforhodamine B assay relative to control; details: OVCAR-4, 48 h, read-out: Activity
HCT-15 = experiment: Cytotoxicity against human HCT15 cells assessed as cell growth at 0.01 uM after 48 hrs by sulforhodamine B assay relative to control; details: HCT-15, 48 h, read-out: Activity
SK-OV-3 = experiment: Cytotoxicity against human SKOV3 cells assessed as cell growth at 10 uM after 48 hrs by sulforhodamine B assay relative to control; details: SK-OV-3, 48 h, read-out: Activity
MCF7 = experiment: Cytotoxicity against human MCF7 cells assessed as cell growth at 100 uM after 48 hrs by sulforhodamine B assay relative to control; details: MCF7, 48 h, read-out: Activity
SW-620 = experiment: Cytotoxicity against human SW620 cells assessed as growth inhibition after 48 hrs by sulforhodamine B assay; details: SW-620, 48 h
HCC 2998 = experiment: Cytotoxicity against human HCC2998 cells assessed as cell growth at 0.01 uM after 48 hrs by sulforhodamine B assay relative to control; details: HCC 2998, 48 h, read-out: Activity
A498 = experiment: Cytotoxicity against human A498 cells assessed as cell growth at 0.1 uM after 48 hrs by sulforhodamine B assay relative to control; details: A498, 48 h, read-out: Activity
DU-145 = experiment: Cytotoxicity against human DU145 cells assessed as cell growth at 0.01 uM after 48 hrs by sulforhodamine B assay relative to control; details: DU-145, 48 h, read-out: Activity
A549 [7] = experiment: Cytotoxicity against human A549/ATCC cells assessed as cell growth at 0.01 uM after 48 hrs by sulforhodamine B assay relative to control; details: A549, 48 h, read-out: Activity
NCI-H322M = experiment: Cytotoxicity against human NCI-H322M cells assessed as growth inhibition after 48 hrs by sulforhodamine B assay; details: for CC50: read-out: LC50 (the source's name)
SN12C [8] = experiment: Cytotoxicity against human SN12C cells assessed as growth inhibition after 48 hrs by sulforhodamine B assay
MDA-MB-231 = experiment: Cytotoxicity against human MDA-MB-231 cells assessed as cell growth at 100 uM after 48 hrs by sulforhodamine B assay relative to control; details: MDA-MB-231, 48 h, read-out: Activity
T47D = experiment: Cytotoxicity against human T47D cells assessed as cell growth at 1 uM after 48 hrs by sulforhodamine B assay relative to control; details: read-out: Activity
RPMI-8226 = experiment: Cytotoxicity against human RPMI8226 cells assessed as growth inhibition after 48 hrs by sulforhodamine B assay; details: RPMI-8226, 48 h
Hs-578T = experiment: Cytotoxicity against human Hs 578T cells assessed as cell growth at 10 uM after 48 hrs by sulforhodamine B assay relative to control; details: read-out: Activity
SN12C [9] = experiment: Cytotoxicity against human SN12C cells assessed as cell growth at 100 uM after 48 hrs by sulforhodamine B assay relative to control; details: read-out: Activity
U-251 [10] = experiment: Cytotoxicity against human U251 cells assessed as cell growth at 10 uM after 48 hrs by sulforhodamine B assay relative to control; details: U-251, 48 h, read-out: Activity

COc1cc(-c2cc(/C=C/C(=O)c3ccc4c(c3)OCO4)[nH]n2)cc(OC)c1OC gave a growth at 1 µM (SNB-19 [1]) of 84%, a growth at 0.1 µM (Malme-3M) of 91% and a growth at 1 µM (OVCAR-3 [2]) of 102%. The growth at 0.1 µM (OVCAR-3 [3]) was 101%, the growth at 1 µM (U-251 [4]) was 85% and the growth at 0.01 µM (SNB-19 [5]) was 94%. The growth at 100 µM (HCT-116) was 1%, the growth at 0.01 µM (NCI-H522) was 87% and the growth at 0.01 µM (IGROV-1) was 98%. The growth at 1 µM (ACHN) was 96%, the LC50 (PC-3) was > 100 µM and the TGI (PC-3) was 13.7 µM. For the same molecule, the TGI (NCI-H23) was > 100 µM, the CC50 (NCI-H23) was > 100 µM and the growth at 0.01 µM (COLO 205) was 105%. The growth at 0.01 µM (K562) was 100%, the growth at 100 µM (SR) was 2% and the growth at 0.1 µM (A549 [6]) was 98%. The LC50 (UACC-62) was > 100 µM, the TGI (UACC-62) was > 100 µM and the LC50 (NCI/ADR-RES) was > 100 µM. For the same molecule, the TGI (NCI/ADR-RES) was > 100 µM, the growth at 10 µM (HOP-62) was -38% and the growth at 10 µM (OVCAR-4) was 27%. For the same molecule, the growth at 0.01 µM (HCT-15) was 95%, the growth at 10 µM (SK-OV-3) was 33% and the growth at 100 µM (MCF7) was 3%. For the same molecule, the LC50 (lethal concentration, 50% net cell kill) (SW-620) was > 100 µM, the growth at 0.01 µM (HCC 2998) was 104% and the growth at 0.1 µM (A498) was 79%. The growth at 0.01 µM (DU-145) was 104%, the growth at 0.01 µM (A549 [7]) was 101% and the TGI (NCI-H322M) was 19.1 µM. For the same molecule, the CC50 (NCI-H322M) was > 100 µM, the LC50 (SN12C [8]) was > 100 µM and the TGI (SN12C [8]) was > 100 µM. For the same molecule, the growth at 100 µM (MDA-MB-231) was 21%, the growth at 1 µM (T47D) was 79% and the LC50 (RPMI-8226) was > 100 µM. It also gave a TGI (RPMI-8226) of 2.94 µM, a growth at 10 µM (Hs-578T) of 17% and a growth at 100 µM (SN12C [9]) of 18%. It also gave a growth at 10 µM (U-251 [10]) of -31%.

Molecule COc1ccc(-c2cc(/C=C/C(=O)c3ccc(N)cc3)[nH]n2)cc1 has a growth at 1 µM (SNB-19 [1]) of 75%, a growth at 0.1 µM (Malme-3M) of 86% and a growth at 1 µM (OVCAR-3 [2]) of 63%. It also gave a growth at 0.1 µM (OVCAR-3 [3]) of 96%, a growth at 1 µM (U-251 [4]) of 65% and a growth at 0.01 µM (SNB-19 [5]) of 92%. The growth at 100 µM (HCT-116) was -15%, the growth at 0.01 µM (NCI-H522) was 84% and the growth at 0.01 µM (IGROV-1) was 98%. It also gave a growth at 1 µM (ACHN) of 71%, a GI50 (PC-3) of 2.42 µM and an LC50 (PC-3) of 39.8 µM. For the same molecule, the TGI (PC-3) was 10.1 µM, the GI50 (NCI-H23) was 3.22 µM and the TGI (NCI-H23) was 13.1 µM. The CC50 (NCI-H23) was 68.4 µM, the growth at 0.01 µM (COLO 205) was 97% and the growth at 0.01 µM (K562) was 98%. For the same molecule, the growth at 100 µM (SR) was -61%, the growth at 0.1 µM (A549 [6]) was 98% and the GI50 (UACC-62) was 1.48 µM. The LC50 (UACC-62) was 5.84 µM, the TGI (UACC-62) was 2.94 µM and the GI50 (NCI/ADR-RES) was 2.86 µM. The LC50 (NCI/ADR-RES) was > 100 µM, the TGI (NCI/ADR-RES) was 15.5 µM and the growth at 10 µM (HOP-62) was -15%. For the same molecule, the growth at 10 µM (OVCAR-4) was -6%, the growth at 0.01 µM (HCT-15) was 97% and the growth at 10 µM (SK-OV-3) was 23%. The growth at 100 µM (MCF7) was -68%, the GI50 (SW-620) was 1.69 µM and the LC50 (lethal concentration, 50% net cell kill) (SW-620) was 56.2 µM. For the same molecule, the TGI (SW-620) was 5.41 µM, the growth at 0.01 µM (HCC 2998) was 96% and the growth at 0.1 µM (A498) was 97%. The growth at 0.01 µM (DU-145) was 104%, the growth at 0.01 µM (A549 [7]) was 101% and the GI50 (NCI-H322M) was 1.84 µM. It also gave a TGI (NCI-H322M) of 9.27 µM, a CC50 (NCI-H322M) of 31.6 µM and a GI50 (SN12C [8]) of 1.89 µM. It also gave an LC50 (SN12C [8]) of 34.9 µM, a TGI (SN12C [8]) of 6.63 µM and a growth at 100 µM (MDA-MB-231) of -65%. For the same molecule, the growth at 1 µM (T47D) was 60%, the GI50 (RPMI-8226) was 0.6 µM and the LC50 (RPMI-8226) was 29.4 µM. It also gave a TGI (RPMI-8226) of 3.22 µM, a growth at 10 µM (Hs-578T) of 22% and a growth at 100 µM (SN12C [9]) of -78%. For the same molecule, the growth at 10 µM (U-251 [10]) was -94%.
